Measured values from patent US6605638B1, “Use of branched chain fatty acids and derivatives thereof for inhibition of P-glycoprotein” (D-Pharm Limited, priority 2000, dated 2003).

Tests used:
MES-SA/Dx5 cells = test: MTT assay of doxorubicin toxicity in multi-drug resistant cells; conditions: for % Toxicity: alone, 72 hours
P-glycoprotein [1] = target: T1, P-glycoprotein (Bos taurus, UniProt A0A3Q1MB23); test: Vincristine accumulation (uptake) in endothelial cells, in vitro BBB model
[2] = system: endothelial cell monolayers; test: [14C]-sucrose permeability (integrity) of endothelial cell monolayers, in vitro BBB model
P-glycoprotein [3] = target: T1, P-glycoprotein; test: Vincristine transport/clearance across endothelial cell monolayers, in vitro BBB co-culture model; format: cell-based, bovine; parameters: P-glycoprotein is expressed in cultured endothelial cells; endogenous in cells; host or cells: primary bovine brain capillary endothelial cells, co-cultured with newborn rat astrocytes in the lower compartment

T1 sequence (A0A3Q1MB23 1-1267): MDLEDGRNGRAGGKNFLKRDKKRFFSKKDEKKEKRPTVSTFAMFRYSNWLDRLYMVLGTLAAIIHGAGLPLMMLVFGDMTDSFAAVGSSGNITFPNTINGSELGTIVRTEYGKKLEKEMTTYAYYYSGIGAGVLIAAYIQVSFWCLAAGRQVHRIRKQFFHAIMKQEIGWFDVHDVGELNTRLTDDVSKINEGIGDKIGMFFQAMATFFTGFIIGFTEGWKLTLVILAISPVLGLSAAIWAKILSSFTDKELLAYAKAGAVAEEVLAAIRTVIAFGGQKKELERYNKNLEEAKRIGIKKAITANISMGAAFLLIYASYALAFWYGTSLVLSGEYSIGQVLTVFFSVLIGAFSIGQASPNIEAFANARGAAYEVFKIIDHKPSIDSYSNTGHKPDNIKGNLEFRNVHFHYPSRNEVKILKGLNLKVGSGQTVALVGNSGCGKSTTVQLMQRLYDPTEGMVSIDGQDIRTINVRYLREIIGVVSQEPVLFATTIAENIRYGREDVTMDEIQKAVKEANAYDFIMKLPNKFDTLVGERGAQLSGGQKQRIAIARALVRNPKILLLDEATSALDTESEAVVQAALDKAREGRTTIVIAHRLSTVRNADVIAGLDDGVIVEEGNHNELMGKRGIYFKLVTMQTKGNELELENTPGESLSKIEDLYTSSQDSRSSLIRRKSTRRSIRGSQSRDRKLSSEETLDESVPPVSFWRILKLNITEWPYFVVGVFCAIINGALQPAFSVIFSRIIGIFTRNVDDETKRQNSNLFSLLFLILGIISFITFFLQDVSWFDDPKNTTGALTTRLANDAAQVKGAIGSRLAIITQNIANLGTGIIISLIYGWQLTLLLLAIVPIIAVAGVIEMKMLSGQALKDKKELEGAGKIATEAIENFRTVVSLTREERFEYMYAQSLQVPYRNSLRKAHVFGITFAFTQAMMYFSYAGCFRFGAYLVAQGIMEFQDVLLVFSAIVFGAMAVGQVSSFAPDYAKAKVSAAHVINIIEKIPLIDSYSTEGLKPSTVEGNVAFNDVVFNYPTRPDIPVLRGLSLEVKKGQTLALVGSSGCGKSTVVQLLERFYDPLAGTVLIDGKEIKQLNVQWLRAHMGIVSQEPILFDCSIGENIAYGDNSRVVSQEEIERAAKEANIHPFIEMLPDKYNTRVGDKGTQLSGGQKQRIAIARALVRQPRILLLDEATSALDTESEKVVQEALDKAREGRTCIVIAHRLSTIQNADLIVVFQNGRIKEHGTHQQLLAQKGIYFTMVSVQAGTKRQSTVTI

## C#CCC(CCCCCCCCCCCC)C(=O)O (stereo not drawn) [DP-3-yl,12, 2,3-propynyltetradecanoic acid]
MES-SA/Dx5 cells; 3.125 μg/ml
  % Toxicity: 0.48%

## CCCCCCCC(CCCCCCC)C(=O)O [DP-7,7, 2-heptylnonanoic acid]
MES-SA/Dx5 cells; 3.125 μg/ml
  % Toxicity: 0.1%

## COc1cccc2c1C(=O)c1c(O)c3c(c(O)c1C2=O)C[C@@](O)(C(=O)CO)C[C@@H]3O[C@H]1C[C@H](N)[C@H](O)[C@H](C)O1 [Dox, doxorubicin, reference compound]
MES-SA/Dx5 cells; 0.125 μg/ml
  % Toxicity: 0%
MES-SA/Dx5 cells; calibration experiments
  Concentration up to which MES-SA/Dx5 cells are resistant: ≤ 250 ng/mL

## CCCCCCCCCCC(CCC)C(=O)O (stereo not drawn) [DP-3,10, 2-propyldodecanoic acid]
MES-SA/Dx5 cells; 12.5 μg/ml
  % Toxicity: 0.1%

## CCCCCCCCCCCCCCC(CCC)C(=O)O (stereo not drawn) [DP-3,14, 2-propylhexadecanoic acid]
P-glycoprotein [1]; Example 4, 0.08 and 0.16 mg/ml, 60 min
  Cellular accumulation of vincristine compared with verapamil: more pronounced than the same effect induced by verapamil
P-glycoprotein [1]; Example 5, 0.001, 0.005 or 0.01 mg/ml, 60 min
  Increase in vincristine uptake compared with verapamil: lower than that observed with verapamil
P-glycoprotein [1]; Example 5, 0.02 or 0.08 mg/ml, 60 minute incubation
  Vincristine accumulation in the cells relative to that caused by verapamil: 2-3 fold
[2]; 0.01 mg/ml, 48 hours incubation
  Paracellular breakdown (opening of the tight junctions) of endothelial cells: no paracellular breakdown
[2]; Example 4, 0.08 mg/ml, 60 min
  Sucrose permeability of the monolayer: 274%
[2]; Example 4, 0.16 mg/ml, 60 min
  Sucrose permeability of the monolayer: 266%
[2]; Example 4, […], 60 min
  Sucrose permeability of the monolayer: 278%
[2]; Example 5, 0.001 mg/ml
  Sucrose permeability of the monolayer (significant decrease): 66%
[2]; Example 5, 0.005 mg/ml
  Sucrose permeability of the monolayer (significant decrease): 68%
[2]; Example 5, 0.01 mg/ml
  Sucrose permeability of the monolayer: No change
[2]; Example 5, 0.02 mg/ml, 60 min
  Sucrose permeability of the monolayer: 452%
[2]; Example 5, 0.08 mg/ml, 60 min
  Sucrose permeability of the monolayer: 574%
[2]; Example 5 conclusion, 0.001—0.01 mg/ml
  Transport of sucrose (paracellular marker): no increase
P-glycoprotein [3]; Example 4, even with lowest concentration 0.08 mg/ml, similar to control without cells
  Clearance of vincristine: significant clearance
P-glycoprotein [3]; Example 5, 0.001 mg/ml
  Transport of vincristine: significant increase
P-glycoprotein [3]; Example 5, 0.02 and 0.08 mg/ml
  Transport of vincristine: Larger effects
P-glycoprotein [3]; Example 5 conclusion, low concentration 0.001—0.01 mg/ml
  Transport of vincristine: increase

## CC[C@]1(O)C[C@H]2CN(CCc3c([nH]c4ccccc34)[C@@](C(=O)OC)(c3cc4c(cc3OC)N(C=O)[C@H]3[C@@](O)(C(=O)OC)[C@H](OC(C)=O)[C@]5(CC)C=CCN6CC[C@]43[C@@H]65)C2)C1 [vincristine, [γ-^3H]Vincristine sulphate, reference compound]
[2]; Example 4, 50 nM vincristine, verapamil 25 μM
  Toxicity for the endothelial cells / integrity of the monolayers: not toxic
[2]; Example 4, with 50 nM vincristine
  Permeability coefficient for [14C]-sucrose (Pesucrose): 1.33±0.08 ×10^−3 cm/min
